# According to patent US11226337B2, “Chemoproteomic profiling of protein electrophilic and oxidative post-translational modifications” (Zenagem, LLC, priority 2017, dated 2022):
# What was measured:
# HEK293T cells = test: CellTiter-Glo luminescence cell viability assay; type: cell-based, human; settings: probe 1 3 mM, 1 hour, 37° C., n=4; untreated 132±2
# Description: Working stock solutions of probes and competitors were neutralized prior to treatment and media was supplemented with 10 mM Na-HEPES (pH 7.5) to enhance the buffer capacity to ensure the pH was maintained. The phenol red pH indicator of the media confirmed that there was no substantial change in pH during the treatment. Cell viability was quantified based on ATP levels in the absence and presence of probe 1 with or without competitor probe 3 using the CellTiter-Glo luminescence assay (Promega). Trypsinized HEK293T cells were diluted in serum-free DMEM supplemented with 10 mM Na-HEPES to a final concentration of 0.8 million cells/mL. To a cell culture microplate (Greiner Bio-One No. 655098; white, 96-well, 34 mm^2 growth area per well, Clear bottom), 80,000 cells (100 μL of cell suspension) were plated per well. […] After 20 minutes at ambient temperature, luminescence was measured on a Biotech Synergy 4 plate reader. Well luminescence, in relative light units (RLU), under each condition (n=4 of each) was measured to determine cell viability according to the formula: Iuntreated, Iprobe 1, and Iprobe 1/competitor 3=(132±2, 139±2, and 134±1)×10^3 RLU. “Iuntreated” refers to the intensity of luminescence of untreated cells; and “Iprobe 1” refers to the intensity of luminescence of probe-1 treated cells.
# [1] = molecular target: T1, ACOX1 Peroxisomal acylcoenzyme A oxidase 1 (Q15067) (Homo sapiens, UniProt Q15067); test: SILAC RP-ABPP; type: cell-based; settings: SILAC H/L, HEK293T
# T1 construct: In Situ Labelling of Cells with Hydrazine Probes for MS Experiments; endogenous in cells; host or cells: HEK293T and/or MDA-MB-231
# T1 sequence (Q15067 whole entry): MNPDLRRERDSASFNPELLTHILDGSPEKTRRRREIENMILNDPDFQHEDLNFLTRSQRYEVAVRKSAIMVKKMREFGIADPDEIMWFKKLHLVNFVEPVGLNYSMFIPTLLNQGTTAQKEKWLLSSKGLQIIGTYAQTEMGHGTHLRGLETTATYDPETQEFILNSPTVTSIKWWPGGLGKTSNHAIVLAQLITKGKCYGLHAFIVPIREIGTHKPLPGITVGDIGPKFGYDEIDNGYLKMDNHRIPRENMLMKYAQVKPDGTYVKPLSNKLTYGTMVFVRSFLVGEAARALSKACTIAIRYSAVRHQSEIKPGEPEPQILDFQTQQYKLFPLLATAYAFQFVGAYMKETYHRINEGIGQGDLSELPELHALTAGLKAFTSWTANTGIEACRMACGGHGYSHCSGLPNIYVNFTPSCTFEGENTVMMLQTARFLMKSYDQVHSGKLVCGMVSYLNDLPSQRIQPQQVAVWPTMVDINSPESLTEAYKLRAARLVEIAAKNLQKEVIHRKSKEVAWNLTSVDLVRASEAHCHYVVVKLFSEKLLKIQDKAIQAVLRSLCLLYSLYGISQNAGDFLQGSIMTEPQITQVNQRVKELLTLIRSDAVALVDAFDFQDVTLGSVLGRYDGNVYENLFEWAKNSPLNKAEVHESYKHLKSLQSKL
# Method in brief: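 Heavy SILAC HEK293T or MDA-MB-231 cells were treated with a clickable hydrazine probe; light cells received the non-clickable analogue (enrichment) or the probe plus 10-fold excess non-clickable competitor (competition). Mixed proteomes underwent CuAAC with 100 μM biotin-azide for 1 h. Heavy:light ratios were taken as median peptide ratios (≥3 peptides) averaged over ≥3 replicates.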
# [2] = system: lung, brain and liver tissue; test: in vivo probe labelling, in-gel fluorescence of tissue proteomes; design: species or system mice; settings: i.p., four hours; soluble and membrane proteomes
# Description: Studies were conducted to determine whether probes can be used to label proteins in vivo. Mice were injected intraperitoneally (i.p,) with hydrazine probe 2. After treatment with probes for four hours, lung, brain and liver tissue was harvested, processed and labeled with rhodamine azide as described in Example 2. Probe labelled proteins were visualized by in-gel fluorescence scanning. The results are shown FIGS. 24A and 24B.
Compound,Well luminescence (cell viability based on ATP levels) (HEK293T cells),enrichment ratioavg ([1]; probe 2 1 mM 0.5 h vs probe 4),competition ratioavg ([1]; probe 2 vs probe 2+10x probe 4),labelling of proteins in vivo [2]
"C#CCNN.Cl [probe 1, prop-2-yn-1-ylhydrazine hydrochloride]",139±2 ×10^3 RLU,–,–,–
"C#CCCNC(=O)c1ccc(NN)cc1.Cl [probe 2, N-(but-3-yn-1-yl)-4-hydrazinylbenzamide hydrochloride]",–,19,2,can be used to label and profile proteins in vivo
